# Data reported in US8501734B2, “Medical intervention in haematological cancers” (Oncotyrol-Center for Personalized Cancer Medicine GmbH …, priority 2008, dated 2013).
# Structures can show the parent of a compound that is named as a salt.
# Assays:
# [1] = test system: Akt; settings: cited from earlier work
# [2] = cited from earlier work
# [3] = test system: OPM2 cells; assay: Annexin V/PI apoptosis assay (FACS), OPM2 cells; format: cell-based; set-up: apoptosis induction: unit not given here; settings: OPM2 cells; for apoptosis induction, combination: Akt inhibitor + Imiquimod 20 μg/ml; for apoptosis induction, single agent: Imiquimod 20 μg/ml or Akt inhibitor alone
# Description: (§1) After treatment adherent cells were trypsinized (as described before), and resuspended in corresponding full medium. Suspension cells or trypsinized adherent cells, supernatant and washing solution (1×PBS from washing before trypsinization) were pooled and then spun down (300 g for 3 min) washed in 2 ml and resuspended in 1000 of annexin V binding buffer and mixed with 2 μg/ml annexin V-Allophycocyanin (APC) (BD-Pharmingen, San Diego, Calif., USA) and 50 ng/ml of propidium iodide (PI; Sigma Aldrich). At least 10.000 cells were measured per sample using a Becton Dickinson FACSCalibur flow Cytometer (San Jose, Calif., USA). Percentage of Annexin V negative and PI negative cells were depicted in the figures. For the analysis of the pro-apoptotic activity of Imiquimod® in primary MM cells and non-malignant BMMCs, 5×10^5 cells BMMCs cells were treated with or without 40 μg/ml Imiquimod® for the indicated time periods. Cells were then harvested and washed twice with PBS. Detection of apoptotic cells was performed using the annexin V/PI assay according to manufacturers' instruction. Briefly, BMMCs were stained with a mixture of annexin V/FITC (Alexis Coorp., Laeufelfingen, Switzerland), propidium iodide (Sigma), anti-CD38-PE and anti-CD45-PC5 for 15 min at room temperature and immediately analyzed by flow cytometry. The percentages of viable cells (i.e. cells negative for annexin V/FITC and PI) within the MM (CD38^posCD45^low/absent) and non-MM fraction (CD38^neg/CD45^pos) were determined by flow cytometry.
# Cells were cultured as described before and, treated with 40 μg/ml Imiquimod® or Gardiquimod® for 24 h, and apoptosis was assayed by AnnexinV/PI staining and FACS analysis.
# (§2) Adherent cells were grown in 24-well plates to confluence and treated with 40 μg/ml Imiquimod® for 24 h. Cells were then trypsinized, suspended in full medium, stained for AnnexinV/PI and apoptosis was measured as described before. Suspension cells (250.000) were treated with 40 μg/ml Imiquimod® for 24 h, stained for Annexin/PI and apoptosis was measured as described above (Annexin V/Propidium Iodide apoptosis Assay).
# (§3) OPM-2 and U266 cells (2.5×10^5 in 500 μl) were treated with either Imiquimod® alone (10 μg/500 μl), various inhibitors/drugs alone or with the combination of Imiquimod® and inhibitors for 24 or 48 h. In the controls the solvent of the drug has been added in appropriate amounts. Cells were then AnnexinV/PI stained and apoptosis measured as described before.
# [4] = test system: PI 3-K, PDK1, or SGK1; settings: cited from earlier work
# [5] = test system: Akt phosphorylation; assay: Akt phosphorylation by Western blot with phospho-Akt antibody in OPM2 cells; format: cell-based
# Description: Cells were lysed in lysis-IP-Buffer supplemented with protease inhibitors and sodium orthovanadate. 10 μg of lysate were separated by SDS-PAGE (10% polyacrylamide) and transferred to methanol activated Hypond-P PVDF-membranes (Amersham, Freiburg, Germany) by semi-dry blotting. Membranes were blocked in a 3% bovine serum albumin solution or 5% non fat dry milk solution in phosphate buffered saline (PBS) with 0.1% Tween 20 (PBT). Primary antibodies were applied in blocking solution for 1 h at room temperature or over night at 4° C. Membranes were washed in PBT and incubated with corresponding secondary antibodies in 5% non fat dry milk in PBT for 1 h at room temperature. Cells were washed with PBT, incubated with ECL solution and exposed in a Fluorchem 5500 (Biozym, Oldendorf, Germany).
# The efficiency of the inhibition of Akt phosphorylation was monitored by Western blotting with antibodies against phospho-Akt. Antibody for actin served as a loading control (FIG. 7B).
# [6] = test system: Rh (rhabdomyosarcoma) cell lines; settings: read-out: IC50 growth suppression; cited from earlier work
# [7] = test system: Flk-1; settings: cited from earlier work
# [8] = test system: U266 cells; assay: Annexin V/PI apoptosis assay (FACS), U266 cells; format: cell-based; set-up: apoptosis induction: unit not given here; also: key: 0 for no; + for low; ++: + indicates the range of apoptosis induction; +++: + indicates the range of apoptosis induction; ++++ for very strong apoptosis induction
# Description: as §1, §2, §3
# [9] = test system: Raji, Daudi, Ramos, Jurkat, C7H2 cell lines; assay: Annexin V/PI apoptosis assay, non-multiple myeloma suspension cell lines; format: cell-based; settings: Raji, Ramos, Jurkat, 24 h
# Description: as §1, §2
# [10] = test system: PH domain-lacking Akts, PKA, PKC, and SGK; settings: concentrations as high as 50 μM; cited from earlier work
# [11] = test system: multiple myeloma cell lines; assay: Annexin V/PI apoptosis assay, multiple myeloma cell line panel; format: cell-based; settings: OPM2, LP-1, RPMI, U266, 24 h
# Description: as §1, §2
# [12] = test system: peripheral blood mononuclear cells (PBMCs); assay: Annexin V/PI apoptosis assay, PBMCs from healthy donors; format: cell-based, human; settings: PBMCs from healthy donors, 48 h, 5 μM Akti1/2 + 20 μg/ml Imiquimod
# Description: PBMCs were prepared using separation via Ficoll density gradient centrifugation (Biochrom AG, Berlin, Germany) according to the protocol of the manufacturer.
# as §1, §2
# [13] = in vivo; cited from earlier work
# [14] = 24 h, Imi 20 μg/ml + drug 10 μM
# [15] = 24 h, Imi 20 μg/ml + drug 50 μM
# [16] = 48 h, Imi 20 μg/ml + drug 10 μM
# [17] = 48 h, Imi 20 μg/ml + drug 50 μM
# [18] = 24 h, Imi 20 μg/ml + drug 100 nM
# [19] = 48 h, Imi 20 μg/ml + drug 100 nM
structure (smiles),measurement,setting,value
"CCN(CC)CCCCN1c2ccccc2Oc2ccc(Cl)cc21 [AktX, 10-(4′-(N-diethylamino)butyl)-2-chlorophenoxazine, HCl]",complete inhibition of Akt phosphorylation and in vitro kinase activity,[1],< 5 µM
same,solubility,[2],soluble in H2O
same,"apoptosis induction, combination",[3]; 24 h,nearly all cells died
same,"apoptosis induction, single agent",[3]; 24 h,some apoptosis
same,"effect on PI 3-K, PDK1, or SGK1",[4],minimal effect
same,phosphorylation of Akt,[5],inhibited the phosphorylation of Akt
same,IC50,[6],2000 to 5000 nM
CC(C)c1cc(/C=C(\C#N)C(=O)NCCCc2ccccc2)cc(C(C)C)c1O [SU1498],apoptosis induction,"[3]; 24 h, Imi 20 μg/ml + drug 1 μM",+
same,apoptosis induction,[3]; [14],++
same,apoptosis induction,[3]; [15],++
same,apoptosis induction,"[3]; 24 h, drug alone 1 μM",0
same,apoptosis induction,"[3]; 24 h, drug alone 10 μM",+
same,apoptosis induction,"[3]; 24 h, drug alone 50 μM",+
same,apoptosis induction,"[3]; 48 h, Imi 20 μg/ml + drug 1 μM",++
same,apoptosis induction,[3]; [16],+++
same,apoptosis induction,[3]; [17],+++
same,apoptosis induction,"[3]; 48 h, drug alone 1 μM",0
same,apoptosis induction,"[3]; 48 h, drug alone 10 μM",+
same,apoptosis induction,"[3]; 48 h, drug alone 50 μM",++
same,IC50,[7],700 nM
same,apoptosis induction,"[8]; 24 h, Imi 20 μg/ml + drug 1 μM",+
same,apoptosis induction,[8]; [14],++
same,apoptosis induction,[8]; [15],++
same,apoptosis induction,"[8]; 24 h, drug alone 1 μM",0
same,apoptosis induction,"[8]; 24 h, drug alone 10 μM",+
same,apoptosis induction,"[8]; 24 h, drug alone 50 μM",+
same,apoptosis induction,"[8]; 48 h, Imi 20 μg/ml + drug 1 μM",++
same,apoptosis induction,[8]; [16],++
same,apoptosis induction,[8]; [17],++
same,apoptosis induction,"[8]; 48 h, drug alone 1 μM",0
same,apoptosis induction,"[8]; 48 h, drug alone 10 μM",++
same,apoptosis induction,"[8]; 48 h, drug alone 50 μM",++
"O=c1[nH]c2ccccc2n1C1CCN(Cc2ccc(-c3nc4cc5nc[nH]c5cc4nc3-c3ccccc3)cc2)CC1 [Akti1/2, 1,3-Dihydro-1-(1-((4-(6-phenyl-1H-imidazo[4,5-g]quinoxalin-7-yl)phenyl)methyl)-4-piperidinyl)-2H-benzimidazol-2-one]",solubility,[2],soluble in DMSO
same,"apoptosis induction, combination","[9]; Daudi, C7H2, 5 μM Akti1/2 + 20 μg/ml Imiquimod",affected all cell lines to some extent
same,apoptosis induction,"[9]; C7H2 (exception Daudi), 5 μM alone",only a mild effect
same,"apoptosis induction, combination",[3]; 24 h,nearly all cells died
same,"apoptosis induction, single agent",[3]; 24 h,some apoptosis
same,inhibitory effect,[10],does not exhibit any inhibitory effect
same,"apoptosis induction, combination",[11]; Akti1/2 5 or 10 μM + Imiquimod 20 μg/ml,super-additive effect
same,"apoptosis induction, single agent",[11]; Imiquimod 20 μg/ml or Akti1/2 5 or 10 μM alone,some apoptosis
same,phosphorylation of Akt,[5],inhibited the phosphorylation of Akt
same,sensitivity of PBMCs (general toxicity of the combination),[12],as sensitive as U266 cells
CCn1c(-c2nonc2N)nc2c(C#CC(C)(C)O)ncc(OC[C@H]3CCCNC3)c21 [GSK690693],reason for withdrawal and termination of clinical phase I studies,[13],hyperglycaemia
Cn1c2ccccc2c2c3c(c4c5ccccc5n(CCC#N)c4c21)CNC3=O [Gö 6976],apoptosis induction,[3]; [18],+
same,apoptosis induction,"[3]; 24 h, Imi 20 μg/ml + drug 1 μM",++
same,apoptosis induction,"[3]; 24 h, Imi 20 μg/ml + drug 5 μM",++
same,apoptosis induction,"[3]; 24 h, drug alone 100 nM",0
same,apoptosis induction,"[3]; 24 h, drug alone 1 μM",0
same,apoptosis induction,"[3]; 24 h, drug alone 5 μM",0
same,apoptosis induction,[3]; [19],++
same,apoptosis induction,"[3]; 48 h, Imi 20 μg/ml + drug 1 μM",+++
same,apoptosis induction,"[3]; 48 h, Imi 20 μg/ml + drug 5 μM",+++
same,apoptosis induction,"[3]; 48 h, drug alone 100 nM",0
same,apoptosis induction,"[3]; 48 h, drug alone 1 μM",0
same,apoptosis induction,"[3]; 48 h, drug alone 5 μM",+
same,apoptosis induction,[8]; [18],+
same,apoptosis induction,"[8]; 24 h, Imi 20 μg/ml + drug 1 μM",++
same,apoptosis induction,"[8]; 24 h, Imi 20 μg/ml + drug 5 μM",++
same,apoptosis induction,"[8]; 24 h, drug alone 100 nM",0
same,apoptosis induction,"[8]; 24 h, drug alone 1 μM",0
same,apoptosis induction,"[8]; 24 h, drug alone 5 μM",0
same,apoptosis induction,[8]; [19],++
same,apoptosis induction,"[8]; 48 h, Imi 20 μg/ml + drug 1 μM",+++
same,apoptosis induction,"[8]; 48 h, Imi 20 μg/ml + drug 5 μM",+++
same,apoptosis induction,"[8]; 48 h, drug alone 100 nM",0
same,apoptosis induction,"[8]; 48 h, drug alone 1 μM",0
same,apoptosis induction,"[8]; 48 h, drug alone 5 μM",+
